Columns and labels:
hTLR7 = target: T1, hTLR7 (Homo sapiens, UniProt Q9NYK1); set-up: host or cells: HEK; details: data disclosed in US20150105370; read-out: HEK/hTLR7 IC50; cited from earlier work
T1 sequence (Q9NYK1 27-1049): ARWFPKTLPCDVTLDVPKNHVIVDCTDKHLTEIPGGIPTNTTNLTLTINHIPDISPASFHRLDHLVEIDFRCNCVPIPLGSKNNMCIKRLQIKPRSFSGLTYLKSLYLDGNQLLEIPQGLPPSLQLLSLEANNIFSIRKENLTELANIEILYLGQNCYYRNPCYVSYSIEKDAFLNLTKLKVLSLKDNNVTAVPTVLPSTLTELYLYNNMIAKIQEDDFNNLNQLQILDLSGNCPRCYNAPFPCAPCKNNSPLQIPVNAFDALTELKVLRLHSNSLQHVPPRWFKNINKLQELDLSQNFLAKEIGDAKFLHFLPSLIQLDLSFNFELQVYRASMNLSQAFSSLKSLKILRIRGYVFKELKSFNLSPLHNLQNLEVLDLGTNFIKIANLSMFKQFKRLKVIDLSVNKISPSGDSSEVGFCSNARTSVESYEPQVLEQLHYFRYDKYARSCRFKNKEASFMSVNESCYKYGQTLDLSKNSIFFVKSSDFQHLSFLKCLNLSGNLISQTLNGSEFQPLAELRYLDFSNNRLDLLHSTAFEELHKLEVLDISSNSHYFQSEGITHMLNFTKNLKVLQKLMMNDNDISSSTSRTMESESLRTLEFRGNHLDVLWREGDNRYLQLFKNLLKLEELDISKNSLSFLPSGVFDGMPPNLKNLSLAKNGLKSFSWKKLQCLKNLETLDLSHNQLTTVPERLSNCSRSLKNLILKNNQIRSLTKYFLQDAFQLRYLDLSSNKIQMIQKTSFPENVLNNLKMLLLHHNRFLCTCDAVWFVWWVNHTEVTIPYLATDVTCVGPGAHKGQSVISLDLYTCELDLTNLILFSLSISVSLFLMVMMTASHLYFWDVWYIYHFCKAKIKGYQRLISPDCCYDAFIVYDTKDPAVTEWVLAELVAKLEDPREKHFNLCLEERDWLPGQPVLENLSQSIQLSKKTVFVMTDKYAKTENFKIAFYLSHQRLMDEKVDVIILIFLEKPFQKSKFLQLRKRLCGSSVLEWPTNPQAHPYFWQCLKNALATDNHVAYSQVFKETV

hERG channel = target: T2, hERG channel (Homo sapiens, UniProt Q12809); experiment: hERG channel inhibition assay (patch-clamp, CHO hERG cells); format: cell-based; details: for IC50 / IC20: CHO hERG cells, whole-cell patch-clamp; for IC20: human, CHO cells stably expressing hERG; for hERG IC20 / TLR7 IC50 / hERG IC20 / TLR9 IC50: safety ratio; for hERG IC20 / TLR7 IC50: TLR7 IC50 of ER compounds from Table 1; for hERG IC20 / TLR9 IC50: TLR9 IC50 of ER compounds from Table 1
T2 construct: expressed in transfected cells; host or cells: CHO (Chinese hamster ovary)
T2 sequence (Q12809 whole entry): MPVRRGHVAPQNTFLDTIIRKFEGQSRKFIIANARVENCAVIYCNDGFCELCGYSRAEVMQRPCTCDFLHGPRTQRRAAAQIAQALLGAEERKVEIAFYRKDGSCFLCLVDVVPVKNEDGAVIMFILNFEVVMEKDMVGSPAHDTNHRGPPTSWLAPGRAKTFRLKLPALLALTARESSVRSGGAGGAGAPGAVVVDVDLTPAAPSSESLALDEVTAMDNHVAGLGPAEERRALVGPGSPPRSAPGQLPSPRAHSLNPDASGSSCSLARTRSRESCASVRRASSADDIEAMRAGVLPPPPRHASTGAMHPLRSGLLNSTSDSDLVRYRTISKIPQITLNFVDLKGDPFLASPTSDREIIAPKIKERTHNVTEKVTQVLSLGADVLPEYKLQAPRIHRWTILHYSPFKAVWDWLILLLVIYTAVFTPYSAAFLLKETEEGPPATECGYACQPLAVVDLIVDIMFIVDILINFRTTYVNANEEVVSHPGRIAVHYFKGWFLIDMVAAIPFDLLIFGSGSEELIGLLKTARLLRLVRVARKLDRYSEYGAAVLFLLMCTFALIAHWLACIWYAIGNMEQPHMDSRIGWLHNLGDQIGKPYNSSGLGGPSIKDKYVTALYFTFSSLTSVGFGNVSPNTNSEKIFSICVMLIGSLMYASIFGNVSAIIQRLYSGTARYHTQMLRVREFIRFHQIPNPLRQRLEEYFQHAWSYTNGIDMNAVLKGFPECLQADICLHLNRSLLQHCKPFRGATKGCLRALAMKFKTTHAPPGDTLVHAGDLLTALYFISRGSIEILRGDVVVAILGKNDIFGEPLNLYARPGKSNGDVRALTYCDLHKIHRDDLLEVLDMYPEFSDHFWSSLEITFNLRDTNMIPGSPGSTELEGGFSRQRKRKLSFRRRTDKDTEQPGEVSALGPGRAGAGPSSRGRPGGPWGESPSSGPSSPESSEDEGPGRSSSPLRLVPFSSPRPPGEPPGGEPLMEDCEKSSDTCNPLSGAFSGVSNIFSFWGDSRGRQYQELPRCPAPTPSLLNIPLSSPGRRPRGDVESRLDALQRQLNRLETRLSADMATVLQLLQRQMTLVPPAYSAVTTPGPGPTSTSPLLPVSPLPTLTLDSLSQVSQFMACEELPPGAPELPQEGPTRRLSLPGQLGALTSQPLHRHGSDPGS
Protocol: The hERG K^+ channels were cloned in humans and stably expressed in a CHO (Chinese hamster ovary) cell line. CHOhERG cells were used for patch-clamp (voltage-clamp, whole-cell) experiments. Cells were stimulated by a voltage pattern to activate hERG channels and conduct IKhERG currents (rapid delayed outward rectifier potassium current of the hERG channel). After the cells were stabilized for a few minutes, the amplitude and kinetics of IKhERG were recorded at a stimulation frequency of 0.1 Hz (6 bpm). Thereafter, the test compound was added to the preparation at increasing concentrations. For each concentration, an attempt was made to reach a steady-state effect, usually, this was achieved within 3-10 min at which time the next highest concentration was applied. The amplitude and kinetics of IKhERG are recorded in each concentration of the drug which were compared to the control values (taken as 100%). (references: Redfern WS, Carlsson L, Davis AS, Lynch WG, MacKenzie I, Palethorpe S, Siegl PK, Strang I, Sullivan AT, Wallis R, Camm AJ, Hammond TG. 2003; Relationships between preclinical cardiac electrophysiology, clinical QT interval prolongation and torsade de pointes for a broad range of drugs: evidence for a provisional safety margin in drug development. Cardiovasc. Res. 58:32-45, Sanguinetti MC, Tristani-Firouzi M. 2006; hERG potassium channels and cardiac arrhythmia. Nature 440:463-469, Webster R, Leishman D, Walker D. 2002; Towards a drug concentration effect relationship for QT prolongation and torsades de pointes. Curr. Opin. Drug Discov. Devel. 5:116-26).
Table 3. hERG and safety ratio results

[1] = Human microsome stability assay; format: in vitro ADME; details: 1 µM test compound, 0.5 mg/mL liver microsomal protein, 37 °C
Protocol: The human microsomal stability assay is used for early assessment of metabolic stability of a test compound in human liver microsomes.
Human liver microsomes (Cat.NO.: 452117, Corning, USA;Cat.NO.:H2610, Xenotech, USA) were preincubated with test compound for 10 minutes at 37 °C in 100 mM potassium phosphate buffer, pH 7.4. The reactions were initiated by adding NADPH regenerating system. The final incubation mixtures contained 1 µM test compound, 0.5 mg/mL liver microsomal protein, 1 mM MgClz, 1 mM NADP, 1 unit/mL isocitric dehydrogenase and 6 mM isocitric acid in 100 mM potassium phosphate buffer, pH 7.4. After incubation times of 0, 3, 6, 9, 15 and 30 minutes at 37 °C, 300 µL of cold acetonitrile (including internal standard) was added to 100 µL incubation mixture to terminate the reaction. Following precipitation and centrifugation, the amount of compound remaining in the samples were determined by LC-MS/MS. Controls of no NADPH regenerating system at zero and 30 minutes were also prepared and analyzed. […] Table 6. Human liver microsome stability of the compounds of present invention

hTLR9 = target: T3, hTLR9 (Homo sapiens, UniProt Q9NR96); set-up: host or cells: HEK; details: data disclosed in US20150105370; read-out: HEK/hTLR9 IC50; cited from earlier work
T3 sequence (Q9NR96 26-1032): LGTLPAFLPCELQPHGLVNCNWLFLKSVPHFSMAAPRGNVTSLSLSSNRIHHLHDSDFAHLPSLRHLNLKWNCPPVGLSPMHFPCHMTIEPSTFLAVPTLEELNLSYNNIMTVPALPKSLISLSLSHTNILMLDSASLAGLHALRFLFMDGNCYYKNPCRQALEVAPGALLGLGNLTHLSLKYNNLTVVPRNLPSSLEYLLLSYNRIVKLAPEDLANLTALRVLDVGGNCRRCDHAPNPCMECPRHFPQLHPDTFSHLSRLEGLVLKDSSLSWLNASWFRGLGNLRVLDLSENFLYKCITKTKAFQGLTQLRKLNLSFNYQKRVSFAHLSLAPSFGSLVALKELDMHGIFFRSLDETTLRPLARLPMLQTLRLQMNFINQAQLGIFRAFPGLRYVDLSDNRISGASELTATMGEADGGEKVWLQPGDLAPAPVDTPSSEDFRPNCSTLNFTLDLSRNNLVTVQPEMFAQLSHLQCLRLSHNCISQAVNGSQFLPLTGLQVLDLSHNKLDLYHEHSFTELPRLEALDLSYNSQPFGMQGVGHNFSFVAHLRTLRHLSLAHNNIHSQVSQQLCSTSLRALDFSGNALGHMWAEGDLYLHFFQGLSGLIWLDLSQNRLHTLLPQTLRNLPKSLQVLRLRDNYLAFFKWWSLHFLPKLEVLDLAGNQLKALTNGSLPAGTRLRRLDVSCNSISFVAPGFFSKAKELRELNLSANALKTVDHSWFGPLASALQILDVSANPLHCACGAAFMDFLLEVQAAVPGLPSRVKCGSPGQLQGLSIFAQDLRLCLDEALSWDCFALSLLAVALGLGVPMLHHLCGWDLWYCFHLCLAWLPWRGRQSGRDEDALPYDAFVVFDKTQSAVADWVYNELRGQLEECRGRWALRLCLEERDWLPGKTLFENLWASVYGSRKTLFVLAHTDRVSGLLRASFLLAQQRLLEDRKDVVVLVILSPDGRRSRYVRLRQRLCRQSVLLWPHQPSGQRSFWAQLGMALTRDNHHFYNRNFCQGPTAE

Row | Clearance of Human microsome [1] [mL/min/kg] | Structure (SMILES) | IC50 (hTLR7) [nM] | IC50 (hERG channel) [nM] | IC20 (hERG channel) [nM] | hERG IC20 / TLR7 IC50 (hERG channel) | hERG IC20 / TLR9 IC50 (hERG channel) | IC50 (hTLR9) [nM]
1 | 17.15 | C[C@@H]1CN(c2ccc(C#N)c3ncccc23)C[C@H](CN2CCN(c3ccccn3)CC2)O1 [ER-888285, reference compound] | 120 | 3110 | 1010 | 8.4 | 0.5 | > 2000
2 | 17.86 | C[C@@H]1CN(c2ccc(C#N)c3ncccc23)C[C@H](CN2CCN(c3ccccc3)CC2)O1 [ER-887258, reference compound] | 85.2 | 2780 | 687 | 8.1 | 0.3 | > 2000

From patent publication EP3807270B1, “NOVEL HETEROARYL HETEROCYCLYL COMPOUNDS FOR THE TREATMENT OF AUTOIMMUNE DISEASE” (F. Hoffmann-La Roche AG, priority 2018, dated 2019)
